Test results from patent US20150352127A1, “INHALATION PARTICLES COMPRISING A COMBINATION OF AN ANTICHOLINERGIC, A CORTICOSTEROID AND A BETA-ADRENERGIC” (CHIESI FARMACEUTICI S.P.A., priority 2014, published 2015).
Structures can show the parent of a compound that is named as a salt.

Key:
Type in all cases: physicochemical
[1] = Aerosol performances by Next Generation Impactor (NGI) from NEXThaler; conditions: formulation of Example 3, NEXThaler, 60 L/min; mean±S.D., n=6
Description: Aerosol performances were determined using the Next Generation Impactor (NGI) with a USP induction port and pre-separator containing 15 mL 60:40% v/v MeOH:H2O. […] The aerodynamic particle size distribution was based on 5 actuations from the NEXThaler®, each sampled into 4 liters of air (equivalent to an inhalation time of 4 s). The device was weighed before and after each actuation to determine the shot weight (mg). A minimum of 1 minute was allowed between consecutive actuations to allow static charge to dissipate.
Samples were collected from the NGI using a fixed volume technique. MeOH:H2O (60:40% v/v) was dispensed into the induction port (including mouthpiece); pre-separator; and each stage using an electronic metering dispenser. The induction port (30 mL) and pre-separator (50 mL) were sealed using silicone bungs and shaken by hand for 2 minutes before the samples were collected. The NGI stages (10 mL stages 1-2; 15 mL stage 3-MOC) were rocked using a NGI rocker for 3 minutes. All samples were filtered using a 0.2 μm syringe filter before analysis by UPLC-PDA.

[2] = Uniformity of distribution of the active ingredients in the powder formulation (UPLC-PDA); conditions: powder formulation of Example 3; for Content: sampled 10 times
Description: About 10 mg of the formulation was weighed directly into a 25 mL volumetric flask. It was sampled 10 times. The flask was made up to volume with 60:40% v/v MeOH:H2O and sonicated for 2 minutes. The samples were analyzed for each active ingredient using UPLC-PDA assay.

[3] = Drug content of the microparticles by UPLC assay; conditions: in spray dried microparticles of Example 1; mean±SD, n=5

| Structure (SMILES) | DD (delivered dose) [1] [µg] | FPF (fine particle fraction) [1] [%] | FPF < 1 μm (extrafine FPF) [1] [%] | FPF < 2 μm (extrafine FPF) [1] [%] | FPM (fine particle mass, ≤5.0 micron) [1] [µg] | MMAD [1] [μm] | % of Target [2] [%] | Content [2] [μg 10 mg^−1] | Actual concentration [3] [% w/w] |
| --- | --- | --- | --- | --- | --- | --- | --- | --- | --- |
| COc1ccc(CC(C)NCC(O)c2ccc(O)c(NC=O)c2)cc1 (stereo not shown) [FF, formoterol fumarate dihydrate] | 5.2 ± 0.1 |  |  |  |  |  |  |  |  |
| CCC(=O)OCC(=O)[C@@]1(OC(=O)CC)[C@@H](C)C[C@H]2[C@@H]3CCC4=CC(=O)C=C[C@]4(C)[C@@]3(Cl)[C@@H](O)C[C@@]21C [BDP, beclometasone dipropionate] | 87.6 ± 2.2 | 68.5 ± 3.1 | 20.8 ± 0.7 | 38.6 ± 1.2 | 60.0 ± 3.6 | 1.9 ± 0.1 | 98.75 | 98.75 ± 1.23 | 82.0 ± 0.3 |
| C[N+]1(C)CCC(OC(=O)C(O)(c2ccccc2)C2CCCC2)C1 (racemic) [GB, glycopyrronium bromide] | 11.5 ± 0.4 | 68.5 ± 3.7 | 21.7 ± 0.7 | 39.3 ± 1.6 | 7.9 ± 0.5 | 1.9 ± 0.1 | 105.37 | 12.64 ± 0.18 | 10.6 ± 0.1 |
